Test results reported in patent publication US20110082130A1 (LIGAND PHARMACEUTICALS, INC., priority 2006, published 2011).
Blank lines part the entries; values can stand above or below the compound they belong to.

Target: T1, chimeric human H3 receptor (Homo sapiens, UniProt Q9Y5N1)
T1 construct: made in house; host or cells: Sf9 insect cells (baculovirus); P2 membrane preparation
Experiment: Chimeric human H3 receptor GTP binding assay (agonist-stimulated GTP-gamma35S binding, Example 7)
Format: biochemical
Method in brief: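 Sf9 membranes co-expressing chimeric human H3 receptor and heterotrimeric G-protein, 35 μg/tube, in pH 7.4 Tris buffer with 10 μM GDP. Test compounds (10^−10–10^−6 M) competed against 1 μM histamine, […] GTP-gamma35S, 60 min at room temperature. Filter-bound radioactivity counted; IC50 converted to Ki by Cheng-Prusoff. Agonism/inverse agonism tested without histamine (EC50).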

[1] = assay of Example 7, "*" in Ki of Table II
[2] = Table II, "*" = Ki in assay of Example 7 less than 1 micromolar
[3] = Table I, P2 membranes of Sf9 cells, 1 μM histamine as agonist, Ki from IC50 by Cheng-Prusoff
[4] = Table II "Ki", symbol *, assay of Example 7

T1 sequence (Q9Y5N1 with tags, fused parts or gaps): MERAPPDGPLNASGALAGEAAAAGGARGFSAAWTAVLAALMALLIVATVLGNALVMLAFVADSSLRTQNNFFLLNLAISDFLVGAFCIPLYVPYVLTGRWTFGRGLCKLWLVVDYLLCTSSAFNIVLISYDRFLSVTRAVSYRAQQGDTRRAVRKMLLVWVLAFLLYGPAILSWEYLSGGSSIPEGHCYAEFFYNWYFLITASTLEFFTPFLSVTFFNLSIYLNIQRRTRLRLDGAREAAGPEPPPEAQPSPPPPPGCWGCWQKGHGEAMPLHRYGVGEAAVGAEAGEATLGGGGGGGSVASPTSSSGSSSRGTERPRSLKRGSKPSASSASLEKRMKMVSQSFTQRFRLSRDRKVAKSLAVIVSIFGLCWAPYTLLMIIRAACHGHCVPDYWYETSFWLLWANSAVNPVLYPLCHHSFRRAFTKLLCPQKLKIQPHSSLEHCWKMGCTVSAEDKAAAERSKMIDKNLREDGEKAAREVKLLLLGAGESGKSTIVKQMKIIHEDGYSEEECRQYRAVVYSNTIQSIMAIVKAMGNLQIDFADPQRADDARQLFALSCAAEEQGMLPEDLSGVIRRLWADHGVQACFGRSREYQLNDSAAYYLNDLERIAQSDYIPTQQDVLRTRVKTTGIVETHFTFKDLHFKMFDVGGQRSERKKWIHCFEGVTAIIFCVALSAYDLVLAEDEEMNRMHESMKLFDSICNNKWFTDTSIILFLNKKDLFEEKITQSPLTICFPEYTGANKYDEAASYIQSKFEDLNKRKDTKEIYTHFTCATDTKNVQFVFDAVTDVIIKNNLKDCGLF

Ki [1]: < 1 µM
Compound: CC(C)N1CCN(C(=O)CN2CCc3cc(-c4cncnc4)ccc3C2)CC1 [Compound 387, 2-[2-(4-isopropylpiperazin-1-yl)-2-oxoethyl]-6-pyrimidin-5-yl-1,2,3,4-tetrahydroisoquinoline]

Ki [2]: < 1 µM
Compound: O=C(CN1CCc2cc(-n3ncccc3=O)ccc2C1)N1CCN(C2CCC2)CC1 [Compound 193, 2-{2-[2-(4-cyclobutylpiperazin-1-yl)-2-oxoethyl]-1,2,3,4-tetrahydroisoquinolin-6-yl}pyridazin-3(2H)-one]

Ki [3]: < 1 µM
Compound: O=C(CN1CCc2ccccc2C1)N1CCN(C2CCCC2)CC1 [Compound 46, 2-[2-(4-cyclopentylpiperazin-1-yl)-2-oxoethyl]-1,2,3,4-tetrahydroisoquinoline]

Ki [2]: < 1 µM
Compound: O=C(CN1CCc2c(cnn2-c2cccc(F)c2)C1)N1CCN(C2CCC2)CC1 [Compound 235, 5-[2-(4-cyclobutylpiperazin-1-yl)-2-oxoethyl]-1-(3-fluorophenyl)-4,5,6,7-tetrahydro-1H-pyrazolo[4,3-c]pyridine]

Ki [4]: < 1 µM
Compound: O=C(CN1CCc2cc(-c3cccc4[nH]ccc34)ccc2C1)N1CCN(C2CCC2)CC1 [Compound 639, 2-[2-(4-cyclobutylpiperazin-1-yl)-2-oxoethyl]-6-(1H-indol-4-yl)-1,2,3,4-tetrahydroisoquinoline]

Ki [4]: < 1 µM
Compound: O=C(CN1CCc2nc(NC3CCC3)ccc2C1)N1CCN(C2CCC2)CC1 [Compound 654, N-cyclobutyl-6-[2-(4-cyclobutylpiperazin-1-yl)-2-oxoethyl]-5,6,7,8-tetrahydro-1,6-naphthyridin-2-amine]

Ki [1]: < 1 µM
Compound: O=C(CN1CCc2nn(-c3ncc(Br)cn3)cc2C1)N1CCN(C2CCC2)CC1 [Compound 287, 2-(5-bromopyrimidin-2-yl)-5-[2-(4-cyclobutylpiperazin-1-yl)-2-oxoethyl]-4,5,6,7-tetrahydro-2H-pyrazolo[4,3-c]pyridine]

Ki [4]: < 1 µM
Compound: CCCC(C)Nc1ccc2c(n1)CCN(CC(=O)N1CCN(C3CCC3)CC1)C2 (stereo not drawn) [Compound 657, 6-[2-(4-cyclobutylpiperazin-1-yl)-2-oxoethyl]-N-(1-methylbutyl)-5,6,7,8-tetrahydro-1,6-naphthyridin-2-amine]

Ki [2]: < 1 µM
Compound: Cn1cc(-c2ccc3c(c2)CCN(CC(=O)N2CCN(C4CCC4)CC2)C3)cnc1=O [Compound 266, 5-{2-[2-(4-cyclobutylpiperazin-1-yl)-2-oxoethyl]-1,2,3,4-tetrahydroisoquinolin-6-yl}-1-methylpyrimidin-2(1H)-one]

Ki [1]: < 1 µM
Compound: O=C(CN1CCc2nc(-c3ccc(Oc4ccccc4)cc3)sc2C1)N1CCN(C2CCC2)CC1 [Compound 318, 5-[2-(4-cyclobutylpiperazin-1-yl)-2-oxoethyl]-2-(4-phenoxyphenyl)-4,5,6,7-tetrahydro[1,3]thiazolo [5,4-c]pyridine]

Ki [4]: < 1 µM
Compound: Cc1cccc(-c2ccc3c(c2)CCN(CC(=O)N2CCN(C4CCC4)CC2)C3)n1 [Compound 628, 2-[2-(4-cyclobutylpiperazin-1-yl)-2-oxoethyl]-6-(6-methylpyridin-2-yl)-1,2,3,4-tetrahydroisoquinoline]

Ki [2]: < 1 µM
Compound: O=C(CN1CCc2cc(OCc3ccccc3)ccc2C1)N1CCN(C2CCC2)CC1 [Compound 194, 6-(benzyloxy)-2-[2-(4-cyclobutylpiperazin-1-yl)-2-oxoethyl]-1,2,3,4-tetrahydroisoquinoline]

Ki [2]: < 1 µM
Compound: CC(=O)c1ccc(-n2ncc3c2CCN(CC(=O)N2CCN(C4CCC4)CC2)C3)nn1 [Compound 216, 1-(6-{5-[2-(4-cyclobutylpiperazin-1-yl)-2-oxoethyl]-4,5,6,7-tetrahydro-1H-pyrazolo[4,3-c]pyridin-1-yl}pyridazin-3-yl)ethanone]

Ki [2]: < 1 µM
Compound: O=C(CN1CCc2cc(-n3cncn3)ccc2C1)N1CCN(C2CCC2)CC1 [Compound 207, 2-[2-(4-cyclobutylpiperazin-1-yl)-2-oxoethyl]-6-(1H-1,2,4-triazol-1-yl)-1,2,3,4-tetrahydroisoquinoline]

Ki [2]: < 1 µM
Compound: CC(C)N1CCN(C(=O)CN2CCc3cc(-c4cccnn4)ccc3C2)CC1 [Compound 164, 2-[2-(4-isopropylpiperazin-1-yl)-2-oxoethyl]-6-pyridazin-3-yl-1,2,3,4-tetrahydroisoquinoline]

Ki [2]: < 1 µM
Compound: CC1CCC[C@H]2CN(C(=O)CN3CCc4cc(Br)ccc4C3)CCN12 (stereo in doubt) [Compound 146, 2-[(6-bromo-3,4-dihydroisoquinolin-2(1H)-yl)acetyl]-6-methyloctahydro-2H-pyrido[1,2-a]pyrazine]

Ki [4]: < 1 µM
Compound: O=C(CN1CCc2nc(NCC3CC3)ccc2C1)N1CCN(C2CCC2)CC1 [Compound 650, 6-[2-(4-cyclobutylpiperazin-1-yl)-2-oxoethyl]-N-(cyclopropylmethyl)-5,6,7,8-tetrahydro-1,6-naphthyridin-2-amine]

Ki [1]: < 1 µM
Compound: CC(C)n1cc(-c2ccc3c(c2)CCN(CC(=O)N2CCN(C4CCC4)CC2)C3)ccc1=O [Compound 282, 5-{2-[2-(4-cyclobutylpiperazin-1-yl)-2-oxoethyl]-1,2,3,4-tetrahydroisoquinolin-6-yl}-1-isopropylpyridin-2(1H)-one]

Ki [4]: < 1 µM
Compound: CN(C)Cc1ccc(-c2ccc3c(c2)CCN(CC(=O)N2CCN(C4CCC4)CC2)C3)cc1 [Compound 642, 1-(4-{2-[2-(4-cyclobutylpiperazin-1-yl)-2-oxoethyl]-1,2,3,4-tetrahydroisoquinolin-6-yl}phenyl)-N,N-dimethylmethanamine]

Ki [2]: < 1 µM
Compound: Cc1ccc(-c2ccc3c(c2)CCN(CC(=O)N2CCN(C4CCCC4C)CC2)C3)nn1 (stereo not drawn) [Compound 190, 2-{2-[4-(2-methylcyclopentyl)piperazin-1-yl]-2-oxoethyl}-6-(6-methylpyridazin-3-yl)-1,2,3,4-tetrahydroisoquinoline]

Ki [2]: < 1 µM
Compound: COCCN(C)c1ccc2c(n1)CCN(CC(=O)N1CCN3C(C)CCC[C@H]3C1)C2 (stereo in doubt) [Compound 181, N-(2-methoxyethyl)-N-methyl-6-[2-(6-methyloctahydro-2H-pyrido[1,2-a]pyrazin-2-yl)-2-oxoethyl]-5,6,7,8-tetrahydro-1,6-naphthyridin-2-amine]

Ki [2]: < 1 µM
Compound: CCC1CCC[C@H]2CN(C(=O)CN3CCc4cc(Br)ccc4C3)CCN12 (stereo in doubt) [Compound 162, 2-[(6-bromo-3,4-dihydroisoquinolin-2(1H)-yl)acetyl]-6-ethyloctahydro-2H-pyrido[1,2-a]pyrazine]

Ki [3]: < 1 µM
Compound: CC(=O)c1ccc(-c2ncnc3c2CCN(CC(=O)N2CCN(C4CCC4)CC2)CC3)cc1 [Compound 79, 1-(4-{7-[2-(4-cyclobutylpiperazin-1-yl)-2-oxoethyl]-6,7,8,9-tetrahydro-5H-pyrimido[4,5-d]azepin-4-yl}phenyl)ethanone]

Ki [1]: < 1 µM
Compound: O=C(CN1CCc2nc(-c3cccc4c3oc3ccccc34)sc2C1)N1CCN(C2CCC2)CC1 [Compound 342, 5-[2-(4-cyclobutylpiperazin-1-yl)-2-oxoethyl]-2-dibenzo[b,d]furan-4-yl-4,5,6,7-tetrahydro[1,3]thiazolo [5,4-c]pyridine]

Ki [1]: < 1 µM
Compound: O=C(CN1CCc2nc(-c3cc(Cl)cc(Cl)c3)sc2C1)N1CCN(C2CCC2)CC1 [Compound 350, 5-[2-(4-cyclobutylpiperazin-1-yl)-2-oxoethyl]-2-(3,5-dichlorophenyl)-4,5,6,7-tetrahydro[1,3]thiazolo [5,4-c]pyridine]

Ki [4]: < 1 µM
Compound: O=C1CCCN1CCCNc1ccc2c(n1)CCN(CC(=O)N1CCN(C3CCC3)CC1)C2 [Compound 653, 1-[3-({6-[2-(4-cyclobutylpiperazin-1-yl)-2-oxoethyl]-5,6,7,8-tetrahydro-1,6-naphthyridin-2-yl}amino)propyl] pyrrolidin-2-one]

Ki [2]: < 1 µM
Compound: O=C(CN1CCc2cc(-n3cccnc3=O)ccc2C1)N1CCN(C2CCC2)CC1 [Compound 213, 1-{2-[2-(4-cyclobutylpiperazin-1-yl)-2-oxoethyl]-1,2,3,4-tetrahydroisoquinolin-6-yl}pyrimidin-2(1H)-one]

Ki [2]: < 1 µM
Compound: O=C(CN1CCc2nn(-c3cncc(N4CCCC4)n3)cc2C1)N1CCN(C2CCC2)CC1 [Compound 268, 5-[2-(4-cyclobutylpiperazin-1-yl)-2-oxoethyl]-2-(6-pyrrolidin-1-ylpyrazin-2-yl)-4,5,6,7-tetrahydro-2H-pyrazolo[4,3-c]pyridine]

Ki [2]: < 1 µM
Compound: CC1CCC[C@H]2CN(C(=O)CN3CCc4nc(-c5cncnc5)sc4C3)CCN12 (stereo in doubt) [Compound 150, 6-methyl-2-[(2-pyrimidin-5-yl-6,7-dihydro[1,3]thiazolo [5,4-c]pyridin-5(4H)-yl)acetyl]octahydro-2H-pyrido[1,2-a]pyrazine]

Ki [2]: < 1 µM
Compound: O=C(CN1CCc2c(cnn2-c2ccc(F)cc2)C1)N1CCN(C2CCC2)CC1 [Compound 234, 5-[2-(4-cyclobutylpiperazin-1-yl)-2-oxoethyl]-1-(4-fluorophenyl)-4,5,6,7-tetrahydro-1H-pyrazolo[4,3-c]pyridine]

Ki [2]: < 1 µM
Compound: O=C(CN1CCc2nc(-c3ccccn3)ncc2C1)N1CCN(C2CCC2)CC1 [Compound 144, 6-[2-(4-cyclobutylpiperazin-1-yl)-2-oxoethyl]-2-pyridin-2-yl-5,6,7,8-tetrahydropyrido[4,3-d]pyrimidine]

Ki [1]: < 1 µM
Compound: CCOc1ccc(-c2nc3c(s2)CN(CC(=O)N2CCN(C4CCC4)CC2)CC3)cc1 [Compound 330, 5-[2-(4-cyclobutylpiperazin-1-yl)-2-oxoethyl]-2-(4-ethoxyphenyl)-4,5,6,7-tetrahydro[1,3]thiazolo [5,4-c]pyridine]

Ki [1]: < 1 µM
Compound: CC(C)c1ccccc1-c1nc2c(s1)CN(CC(=O)N1CCN(C3CCC3)CC1)CC2 [Compound 362, 5-[2-(4-cyclobutylpiperazin-1-yl)-2-oxoethyl]-2-(2-isopropylphenyl)-4,5,6,7-tetrahydro[1,3]thiazolo [5,4-c]pyridine]
